Experimental data: patent US9062002B2, “Substituted pyridine derivatives as FabI inhibitors” (Aurigene Discovery Technologies Limited, priority 2011, dated 2015)
Converted amounts (≈) assume the structure as drawn. Read-outs that look alike come from different tables or passages of the source.

Legend:
[1] = Metabolic stability study in mouse liver microsomes; format: in vitro ADME; conditions: 1 μM, 37° C.
Experimental: The above selected compounds have protected mice from infection at ED50 doses. Metabolic Stability Study: In vitro metabolic stability of the compounds was done in mouse liver microsomes prepared in house as per standard protocol. Compounds were tested at 1 μM concentration. Compounds were incubated for 15 and 60 minutes at 37° C. with 100 rpm in shaker bath. After the incubation samples were analysed by LC/MS (API-4000). Respective control (Propranalol) was included in the study.

MSSA = assay: MIC by broth microdilution method; format: cell-based; conditions: for MIC: Staphylococcus aureus, MRSA / MSSA, read-out: MIC Vs MRSA (μg/ml) MSSA
MRSE = assay: MIC by broth microdilution method; format: cell-based; conditions: for MIC: Staphylococcus epidermidis, MRSA / MRSE, read-out: MIC Vs MRSA (μg/ml) MRSE
Fab I = conditions: 1 μM compound
MRSA = assay: MIC by broth microdilution method; format: cell-based; conditions: for MIC: Staphylococcus aureus, read-out: MIC Vs MRSA (μg/ml) MRSA

| SMILES | Percentage of compound remained after 15 min [1] | Percentage of compound remained after 60 min [1] | MIC (MSSA; MSSA, broth microdilution) | MIC (MRSE; MRSE, broth microdilution) | FAB-I inhibition %@1 μM (Fab I) | MIC (MRSA; MRSA, broth microdilution) | MIC Vs MRSA (μg/ml) MSSA (MSSA; MSSA, broth microdilution) | MIC Vs MRSA (μg/ml) MRSE (MRSE; MRSE, broth microdilution) | MIC Vs MRSA (μg/ml) MRSA (MRSA; MRSA, broth microdilution) | MIC Vs MRSA (μg/ml) MSSA (MSSA) | MIC Vs MRSA (μg/ml) MRSE (MRSE) | MIC Vs MRSA (μg/ml) MRSA (MRSA) |
| --- | --- | --- | --- | --- | --- | --- | --- | --- | --- | --- | --- | --- |
| O=C1CCc2cc(/C=C/C(=O)N3CC=C(c4ccccc4)CC3)cnc2N1 [Compound 2, (E)-6-(3-oxo-3-(4-phenyl-5,6-dihydropyridin-1(2H)-yl)prop-1-en-1-yl)-3,4-dihydro-1,8-naphthyridin-2(1H)-one] | 99.7% | 97.9% | 0.5 µg/mL (≈ 1.39 µM) | 4 µg/mL (≈ 11.1 µM) | 86% | 0.5 µg/mL (≈ 1.39 µM) |  |  |  |  |  |  |
| O=C1CCc2cc(/C=C/C(=O)N3CC=C(c4ccc(F)cc4)CC3)cnc2N1 [Compound 8] |  |  |  |  | 108% |  | 2 µg/mL (≈ 5.3 µM) | 8 µg/mL (≈ 21.2 µM) | 2 µg/mL (≈ 5.3 µM) |  |  |  |
| O=C1CCc2cc(/C=C/C(=O)N3CC=C(Cc4ccccc4)CC3)cnc2N1 [Compound 62] | 78.5% | 54.2% |  |  | 76% |  |  |  |  | 0.25 µg/mL (≈ 0.669 µM) | 0.5 µg/mL (≈ 1.34 µM) | 0.5 µg/mL (≈ 1.34 µM) |
| O=C1CCc2cc(/C=C/C(=O)N3CC=C(Cc4cccc(F)c4)CC3)cnc2N1 [Compound 65] | 90.6% | 75.0% |  |  | 90% |  |  |  |  | 0.25 µg/mL (≈ 0.639 µM) | 0.5 µg/mL (≈ 1.28 µM) | 0.25 µg/mL (≈ 0.639 µM) |
| O=C1CCc2cc(/C=C/C(=O)N3CC=C(Cc4ccccc4F)CC3)cnc2N1 [Compound 66] |  |  |  |  | 84% |  |  |  |  | 0.25 µg/mL (≈ 0.639 µM) | 0.25 µg/mL (≈ 0.639 µM) | 0.25 µg/mL (≈ 0.639 µM) |
| O=C1CCc2cc(/C=C/C(=O)N3CC=C(Cc4cccc(Cl)c4)CC3)cnc2N1 [Compound 67] |  |  |  |  | 63% |  | 2 µg/mL (≈ 4.9 µM) | 2 µg/mL (≈ 4.9 µM) | 1 µg/mL (≈ 2.45 µM) |  |  |  |
| Cc1ccc(CC2=CCN(C(=O)/C=C/c3cnc4c(c3)CCC(=O)N4)CC2)cc1 [Compound 70] |  |  |  |  | 63.47% |  |  |  |  | 1 µg/mL (≈ 2.58 µM) | 2 µg/mL (≈ 5.16 µM) | 1 µg/mL (≈ 2.58 µM) |
| O=C1CCc2cc(/C=C/C(=O)N3CC=C(Cc4cccs4)CC3)cnc2N1 [Compound 84] |  |  |  |  | 100% |  |  |  |  | 0.125 µg/mL (≈ 0.329 µM) | 0.25 µg/mL (≈ 0.659 µM) | 0.25 µg/mL (≈ 0.659 µM) |
| O=C1CCc2cc(/C=C/C(=O)N3CC=C(Cc4sccc4Cl)CC3)cnc2N1 [Compound 87] |  |  |  |  | 69.05% |  |  |  |  | 0.5 µg/mL (≈ 1.21 µM) | 0.5 µg/mL (≈ 1.21 µM) | 0.5 µg/mL (≈ 1.21 µM) |
| CC(=O)Nc1ccc(/C=C/C(=O)N2CC=C(Cc3cccs3)CC2)cn1 [Compound 88, (E)-N-(5-(3-oxo-3-(4-(thiophen-2-ylmethyl)-5,6-dihydropyridin-1(2H)-yl)prop-1-en-1-yl)pyridin-2-yl)acetamide] | 11.1% | 5.5% | > 128 µg/mL | > 128 µg/mL | 87% | > 128 µg/mL |  |  |  |  |  |  |
| O=C(/C=C/c1cnc2c(c1)CN(CCN1CCOCC1)C(=O)N2)N1CC=C(Cc2cccs2)CC1 [Compound 90, (E)-3-(2-morpholinoethyl)-6-(3-oxo-3-(4-(thiophen-2-ylmethyl)-5,6-dihydropyridin-1(2H)-yl)prop-1-en-1-yl)-3,4-dihydro pyrido[2,3-d]pyrimidin-2(1H)-one] | 32.4% | 22.9% | > 128 µg/mL | > 128 µg/mL | 89% | > 128 µg/mL |  |  |  |  |  |  |
| O=C1CCNc2cc(/C=C/C(=O)N3CC=C(Cc4cccs4)CC3)cnc2N1 [Compound 91, (E)-8-(3-oxo-3-(4-(thiophen-2-ylmethyl)-5,6-dihydropyridin-1(2H)-yl)prop-1-en-1-yl)-2,3-dihydro-1H-pyrido[2,3-b][1,4]diazepin-4(5H)-one] | 81.3% | 79.3% | 0.25 µg/mL (≈ 0.634 µM) | 0.5 µg/mL (≈ 1.27 µM) | 93% | 0.5 µg/mL (≈ 1.27 µM) |  |  |  |  |  |  |
| CN1CC(=O)Nc2ncc(/C=C/C(=O)N3CC=C(Cc4cccs4)CC3)cc2C1 [Compound 93, (E)-4-methyl-7-(3-oxo-3-(4-(thiophen-2-ylmethyl)-5,6-dihydropyridin-1(2H)-yl)prop-1-en-1-yl)-4,5-dihydro-1H-pyrido[2,3-e][1,4]diazepin-2(3H)-one] | 16.1% | 1.1% | 0.5 µg/mL (≈ 1.22 µM) | 1 µg/mL (≈ 2.45 µM) | 93% | 0.5 µg/mL (≈ 1.22 µM) |  |  |  |  |  |  |
| CC(C)(C)OC(=O)N1CCC2(CC1)Cc1cc(/C=C/C(=O)N3CC=C(Cc4cccs4)CC3)cnc1NC2=O [Compound 94, (E)-tert-butyl 2-oxo-6-(3-oxo-3-(4-(thiophen-2-ylmethyl)-5,6-dihydropyridin-1(2H)-yl)prop-1-en-1-yl)-2,4-dihydro-1H-spiro[[1,8]naphthyridine-3,4′-piperidine]-1′-carboxylate] | 55.7% | 37.6% | 0.5 µg/mL (≈ 0.911 µM) | 1 µg/mL (≈ 1.82 µM) |  | 0.5 µg/mL (≈ 0.911 µM) |  |  |  |  |  |  |
| O=C1CCc2cc(/C=C/C(=O)N3CC=C(Cc4nccs4)CC3)cnc2N1 [Compound 97] |  |  |  |  | 66.85% |  |  |  |  | 0.5 µg/mL (≈ 1.31 µM) | 1 µg/mL (≈ 2.63 µM) | 0.5 µg/mL (≈ 1.31 µM) |
| O=C1CCc2cc(/C=C/C(=O)N3CC=C(Cn4cccn4)CC3)cnc2N1 [Compound 100] |  |  |  |  | 77% |  | 128 µg/mL (≈ 352 µM) | 128 µg/mL (≈ 352 µM) | 128 µg/mL (≈ 352 µM) |  |  |  |
| O=C1CCc2cc(/C=C/C(=O)N3CC=C(COc4ccccc4)CC3)cnc2N1 [Compound 107, (E)-6-(3-oxo-3-(4-(phenoxymethyl)-5,6-dihydropyridin-1(2H)-yl)prop-1-en-1-yl)-3,4-dihydro-1,8-naphthyridin-2(1H)-one] |  |  | 4 µg/mL (≈ 10.3 µM) | 4 µg/mL (≈ 10.3 µM) | 95% | 4 µg/mL (≈ 10.3 µM) |  |  |  |  |  |  |
| O=C1CCc2cc(/C=C/C(=O)N3CC=C(COc4ccc(Cl)cc4)CC3)cnc2N1 [Compound 113] |  |  |  |  | 36% |  | >128 µg/mL | >128 µg/mL | >128 µg/mL |  |  |  |
